Patent US5830917A, “L-N^6 -(1-iminoethyl) lysine derivatives useful as nitric oxide synthase inhibitors” (G. D. Searle & Co., priority 1995, dated 1998)
pIC50: −log10 of the molar value. Counter-ions that a name gives are not always drawn.

Assays:
[1] = test system: constitutive and the inducible NO synthase; settings: background statement; cited from earlier work
[2] = target: T1, human inducible NOS (hiNOS) (Homo sapiens, UniProt P35228); assay: Citrulline Assay for Nitric Oxide Synthase, hiNOS; assay type: biochemical; settings: 37° C., 15 minutes, L-[2,3-3H]-arginine to citrulline
T1 construct: made in house; host or cells: insect cells, baculovirus vector
Description: (§1) Citrulline Assay for Nitric Oxide Synthase
(§2) Nitric oxide synthase activity was measured by monitoring the conversion of L-[2,3-3H]-arginine to L-[2,3-3H]-citrulline (1,2). The cDNA for human inducible NOS (hiNOS) was isolated from a λcDNA library made from RNA extracted from a colon sample from a patient with ulcerative colitis; human endothelial constitutive NOS (hecNOS) was isolated from a λcDNA library made from RNA extracted from human umbilical vein endothelial cells (HUVEC); and human neuronal constitutive NOS (hncNOS) was isolated from a λcDNA library made from RNA extracted from human cerebellum from a cadaver. The recombinant enzymes were expressed in insect cells using a baculovirus vector. Enzyme activity was isolated from cell extracts and partially purified by DEAE-Sepharose chromatography (2). Enzyme and inhibitors were added to give a volume of 50 μL in 50 mM Tris (pH 7.6) and the reaction initiated by the addition of 50 μL of a solution containing 50 mM Tris (pH 7.6), 2.0 mg/mL bovine serum albumin, 2.0 mM DTT, 4.0 mM CaCl2, 20 μM FAD, 100 μM tetrahydrobiopterin, 0.4-2.0 mM NADPH and 60 μM L-arginine containing 0.9 μCi of L-[2,3-3H]-arginine. […] The [3H]-citrulline was separated by chromatography on Dowex 50W X-8 cation exchange resin and radioactivity quantified with a liquid scintillation counter.

[3] = target: T2, human endothelial constitutive NOS (hecNOS) (Homo sapiens, UniProt P29474); assay: Citrulline Assay for Nitric Oxide Synthase, hecNOS; assay type: biochemical; settings: 37° C., 15 minutes, with calmodulin 40-100 nM
T2 construct: made in house; host or cells: insect cells, baculovirus vector
Description: as §1, §2

[4] = target: T3, human neuronal constitutive NOS (hncNOS) (Homo sapiens, UniProt P29475); assay: Citrulline Assay for Nitric Oxide Synthase, hncNOS; assay type: biochemical; settings: 37° C., 15 minutes, with calmodulin 40-100 nM
T3 construct: made in house; host or cells: insect cells, baculovirus vector
Description: as §1, §2

pIC50 [2]	pIC50 [3]	pIC50 [4]	SMILES	selectivity between constitutive and inducible NO synthase [1]
			CN=C(N)NCCC[C@H](N)C(=O)O [L-NMMA, L-N-monomethyl-arginine]	non-selective
3.97	2.18	3.08	CC(=N)NCCCC[C@H](N)CNS(C)(=O)=O [Example 3, N-[5S-amino-6-[(methylsulfonyl)amino]hexyl]ethanimidamide, dihydrochloride]	
4.66	3.32	4.46	CC(=N)NCCCC[C@H](N)CNC(=N)N [Example 2, N-[5S-amino-6-[(aminoiminomethyl)amino]hexyl]ethanimidamide, trihydrochloride]	
